Values of other authors as cited in patent publication US7994218B2, “Simple pantoic acid ester neopentyl sulfonyl ester cyclization release prodrugs of acamprosate, compositions thereof, and methods of use” (XenoPort, Inc., priority 2007, dated 2011).

Tests used:
[1] = acamprosate doses about 1-2 gm per day
cocaine conditioned mice = settings: 100 mg/kg acamprosate for 3 days

CC(=O)NCCCS(=O)(=O)O [acamprosate, 3-(Acetylamino)propylsulfonic acid]
time at which steady-state plasma concentration occurs post-dose [1]: 3 to 8 h | effect on relapse-like behavior (cocaine conditioned mice): attenuated relapse-like behavior
